# Reference: patent US20150105429A1, “BENZYL SULFONAMIDE DERIVATIVES AS RORC MODULATORS” (Genentech, Inc., priority 2011, published 2015)
# Target: T1, RORc ligand binding domain (Homo sapiens, UniProt P51449)
# T1 construct: host or cells: E. coli
# T1 sequence (P51449 269-508 limits assumed): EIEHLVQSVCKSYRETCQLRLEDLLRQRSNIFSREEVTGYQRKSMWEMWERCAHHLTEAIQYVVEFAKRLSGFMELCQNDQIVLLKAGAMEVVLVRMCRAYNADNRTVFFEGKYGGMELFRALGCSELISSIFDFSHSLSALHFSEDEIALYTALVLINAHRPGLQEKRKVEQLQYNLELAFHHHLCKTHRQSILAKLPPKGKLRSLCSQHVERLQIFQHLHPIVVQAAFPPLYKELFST
# Assay: In Vitro RORc Ligand Binding Assay
# Conditions: radioligand 25-[3H]hydroxycholesterol 6 nM; 0.6 ug/mL RORc receptor; 3 h at 25° C.; read-out: IC50 values (micromolar) for RORc affinity
# Protocol: This assay was used to determine a compound's potency in inhibiting activity of RORc by determining, Kiapp, IC50, or percent inhibition values.
# On day of the assay, 100 uL of 0.05% CHAPS (in deionized H2O) was added to all wells of the GFB Unifilter plate and allowed soak for 1 h. A wash buffer of 50 mM HEPES (pH 7.4), 150 mM NaCl, and 5 mM MgCl2 was prepared to wash the filter plate. To prepare an assay buffer, BSA was added to the wash buffer to reach 0.01% and DTT was added to reach 1 mM.
# The 20× compound stocks were diluted in DMSO with Assay Buffer 4-fold to reach 5× the final test concentration in 25% DMSO (10 uL compound+30 uL Assay Buffer). Solutions were mixed by aspiration several times with a pipette set on 50 uL volume. For the assay, 10 uL of 5× compound stock solutions in 25% DMSO were added to the assay plate in duplicate.
# For two point screening, 10 mM stock compound solutions were diluted in DMSO to obtain 200 uM (20× the high test concentration) and then diluted 10-fold further to reach 20 uM (20× the low test concentration). The 20× stocks were diluted 4-fold with Assay Buffer (10 uL compound+30 uL Assay Buffer) to reach 5× the test concentrations (50 uM and 5 uM) and 10 uL were added to two assay plates for the duplicate wells. With each concentration tested on 2 plates, each set of 80 compounds used 4 assay plates (1 uM and 10 uM, with n=2).
# For 25-hydroxycholesterol in 25% DMSO/75% Assay Buffer; 10 uL per well was used for NSB samples. Wells for Total Binding and No Receptor sample determination contained 10 uL of 25% DMSO/75% Assay Buffer per well.
# Radioligand (25-[^3H]hydroxycholesterol) Preparation
# Added 20 uL to all wells to reach 6 nM final in the assay.
# Stock receptor solution was diluted in assay buffer to obtain 1.5 ug/mL in Assay Buffer. 20 uL was added to all wells. For No R samples, 20 uL Assay Buffer was substituted for receptor solution.
# Assay plates were 96-well polypropylene V-bottom plates. 10 uL of 5× compound in 25% DMSO/75% Assay Buffer was added to Test wells. 10 uL of 25% DMSO/75% Assay Buffer was added to Total Binding or No Receptor wells. 10 uL of 5 uM 25-hydroxycholesterol in 25% DMSO/75% Assay Buffer was added to NSB wells. […] 20 uL of 1.5 ug/mL RORc receptor was added to wells (or 40 uL Assay Buffer to No R wells). Following addition to the wells, the plates were incubated 3 h at 25° C.
# Using a Packard Filtermate Harvester, the filter plates were washed 4 times following transfer of the incubated samples. Plates were dry-filtered completely (2 h at 50° C. or overnight at room temperature). 50 uL Microscint 0 was added to all wells and read on Topcount protocol Inverted.
# Final concentrations were as follows: 50 mM HEPES buffer (pH 7.4); 150 mM NaCl; 1 mM DTT; 5 mM MgCl2; 0.01% BSA; 5% DMSO; 0.6 ug/mL RORc receptor; 6 nM 25-[^3H]hydroxycholesterol. For NSB wells, 1 uM 25-hydroxycholesterol was also present.
row,SMILES,IC50 [µM]
1,"CC(C)CN(Cc1ccc(-c2cncc(S(C)(=O)=O)c2)s1)S(=O)(=O)Cc1ccccc1 [Compound 44, N-Isobutyl-N-[5-(5-methanesulfonyl-pyridin-3-yl)-thiophen-2-ylmethyl]-C-phenyl-methanesulfonamide]",2.5
2,"CC(C)CN(Cc1ccc(-c2cncc(C#N)c2)s1)S(=O)(=O)Cc1ccccc1 [Compound 50, N-[5-(5-Cyano-pyridin-3-yl)-thiophen-2-ylmethyl]-N-isobutyl-C-phenyl-methanesulfonamide]",3.1
3,"CNC(=O)c1ccc(-c2ccc(CN(CC(C)C)S(=O)(=O)Cc3ccccc3)s2)cn1 [Compound 51, 5-{5-[(Isobutyl-phenylmethanesulfonyl-amino)-methyl]-thiophen-2-yl}-pyridine-2-carboxylic acid methylamide]",4.4
4,"CC(=O)Nc1ccc(-c2ccc(CN(CC(C)C)S(=O)(=O)Cc3ccccc3)s2)cn1 [Compound 52, N-(5-{5-[(Isobutyl-phenylmethanesulfonyl-amino)-methyl]-thiophen-2-yl}-pyridin-2-yl)-acetamide]",3
5,"COCCN(Cc1ccc(-c2ccc(S(C)(=O)=O)cc2)s1)S(=O)(=O)Cc1ccccc1 [Compound 57, N-[5-(4-Methanesulfonyl-phenyl)-thiophen-2-ylmethyl]-N-(2-methoxy-ethyl)-C-phenyl-methanesulfonamide]",5.1
6,"CCN(Cc1ccc(-c2ccc(S(C)(=O)=O)cc2)s1)S(=O)(=O)Cc1ccccc1 [Compound 58, N-Ethyl-N-[5-(4-methanesulfonyl-phenyl)-thiophen-2-ylmethyl]-C-phenyl-methanesulfonamide]",3.1
7,"Cc1nn(C)c(C)c1S(=O)(=O)N(Cc1ccc(-c2cccc(S(C)(=O)=O)c2)s1)CC(C)C [Compound 61, 1,3,5-Trimethyl-1H-pyrazole-4-sulfonic acid isobutyl-[5-(3-methanesulfonyl-phenyl)-thiophen-2-ylmethyl]-amide]",3.6
8,"CC(C)CN(Cc1ccc(-c2cccc(S(C)(=O)=O)c2)s1)S(=O)(=O)c1cccnc1 [Compound 62, Pyridine-3-sulfonic acid isobutyl-[5-(3-methanesulfonyl-phenyl)-thiophen-2-ylmethyl]-amide]",4.2
9,"CC(C)CN(Cc1ccc(-c2cc(F)c(CO)c(S(C)(=O)=O)c2)s1)S(=O)(=O)Cc1ccccc1 [Compound 63, N-((5-(3-fluoro-4-(hydroxymethyl)-5-(methylsulfonyl)phenyl)thiophen-2-yl)methyl)-N-isobutyl-1-phenylmethanesulfonamide]",5
10,"CC(C)CN(Cc1cccc(-c2cccc(S(C)(=O)=O)c2)c1)S(=O)(=O)Cc1ccccc1 [Compound 67, N-isobutyl-N-((3′-(methylsulfonyl)-[1,1′-biphenyl]-3-yl)methyl)-1-phenylmethanesulfonamide]",3

# Molecules with a lower IC50, results first:
row,IC50 [µM],SMILES
1,2.4,"CC(C)CN(Cc1ccc(-c2cccc(C(=O)N(C)C)c2)s1)S(=O)(=O)Cc1ccccc1 [Compound 43, 3-{5-[(Isobutyl-phenylmethanesulfonyl-amino)-methyl]-thiophen-2-yl}-N,N-dimethyl-benzamide]"
2,2,"CC(C)CN(Cc1ncc(-c2ccc(S(C)(=O)=O)c(F)c2)s1)S(=O)(=O)Cc1ccccc1 [Compound 64, N-((5-(3-fluoro-4-(methylsulfonyl)phenyl)thiazol-2-yl)methyl)-N-isobutyl-1-phenylmethanesulfonamide]"
3,2,"CC(C)CN(Cc1ccc(-c2ccc(S(C)(=O)=O)cc2)cn1)S(=O)(=O)Cc1ccccc1 [Compound 65, N-isobutyl-N-((5-(4-(methylsulfonyl)phenyl)pyridin-2-yl)methyl)-1-phenylmethanesulfonamide]"
4,1.8,"CC(C)CN(Cc1ccc(-c2cccc(S(C)(=O)=O)c2)s1)S(=O)(=O)C1CCCC1 [Compound 60, Cyclopentanesulfonic acid isobutyl-[5-(3-methanesulfonyl-phenyl)-thiophen-2-ylmethyl]-amide]"
5,1.4,"CC(C)CN(Cc1ccc(-c2cccc(C(N)=O)c2)s1)S(=O)(=O)Cc1ccccc1 [Compound 41, 3-{5-[(Isobutyl-phenylmethanesulfonyl-amino)-methyl]-thiophen-2-yl}-benzamide]"
6,1.2,"CC(C)CN(Cc1ccc(-c2ccnc(N)c2)s1)S(=O)(=O)Cc1ccccc1 [Compound 46, N-[5-(2-Amino-pyridin-4-yl)-thiophen-2-ylmethyl]-N-isobutyl-C-phenyl-methanesulfonamide]"
7,0.77,"CC(C)CN(Cc1ccc(-c2ccc(S(C)(=O)=O)cc2)nc1)S(=O)(=O)Cc1ccccc1 [Compound 66, N-isobutyl-N-((6-(4-(methylsulfonyl)phenyl)pyridin-3-yl)methyl)-1-phenylmethanesulfonamide]"
8,0.614,"CC(C)CN(Cc1ccc(-c2ccncc2)s1)S(=O)(=O)Cc1ccccc1 [Compound 38, N-Isobutyl-C-phenyl-N-(5-pyridin-4-yl-thiophen-2-ylmethyl)-methanesulfonamide]"
9,0.612,"CC(C)CN(Cc1ccc(-c2cnn(C)c2)s1)S(=O)(=O)Cc1ccccc1 [Compound 45, N-Isobutyl-N-[5-(1-methyl-1H-pyrazol-4-yl)-thiophen-2-ylmethyl]-C-phenyl-methanesulfonamide]"
10,0.377,"Cc1n[nH]c(C)c1-c1ccc(CN(CC(C)C)S(=O)(=O)Cc2ccccc2)s1 [Compound 49, N-[5-(3,5-Dimethyl-1H-pyrazol-4-yl)-thiophen-2-ylmethyl]-N-isobutyl-C-phenyl-methanesulfonamide]"
11,0.32,"CC(C)CN(Cc1csc(-c2ccc(S(C)(=O)=O)cc2)c1)S(=O)(=O)Cc1ccccc1 [Compound 68, N-isobutyl-N-((5-(4-(methylsulfonyl)phenyl)thiophen-3-yl)methyl)-1-phenylmethanesulfonamide]"
12,0.278,"CC(C)CN(Cc1cc(-c2ccc(S(C)(=O)=O)cc2)cs1)S(=O)(=O)Cc1ccccc1 [Compound 59, N-Isobutyl-N-[4-(4-methanesulfonyl-phenyl)-thiophen-2-ylmethyl]-C-phenyl-methanesulfonamide]"
13,0.195,"CC(C)N(Cc1ccc(-c2ccc(S(C)(=O)=O)cc2)s1)S(=O)(=O)Cc1ccccc1 [Compound 56, N-Isopropyl-N-[5-(4-methanesulfonyl-phenyl)-thiophen-2-ylmethyl]-C-phenyl-methanesulfonamide]"
14,0.074,"CC(C)CN(Cc1ccc(-c2ccc(S(C)(=O)=O)cc2)c(C#N)c1)S(=O)(=O)Cc1ccccc1 [Compound 69, N-((2-cyano-4′-(methylsulfonyl)-[1,1′-biphenyl]-4-yl)methyl)-N-isobutyl-1-phenylmethanesulfonamide]"
